Measurements reported in US20140045805A1, “Fragrance Compositions and Other Compositions Which Contain Naturally Occurring Substances Found in Corals” (priority 2007, published 2014).
Read-outs that look alike come from different tables or passages of the source.

Key:
humans = conditions: Grosser et al., 2000, cited from earlier work; for Effect on negative affect / negativity: administered nasally to humans
[1] = system: peripheral nasal chemosensory receptors; conditions: androstadienone 27 picograms, muricin aglycone 30 picograms; adapted from Monti-Bloch et al. (1994); cited from earlier work

melting point [°C] | Compound | Effect on negative affect / negativity (humans) | Effect on negative affect / negativity (humans; listed as Androsta-4,16-dien-3-one) | Effect on social warmth and friendliness, personal well-being and arousal/excitement (humans; humans) | Depolarization of the electrogram of peripheral nasal chemosensory receptors [1]
– | C[C@@]12C=CC[C@H]1[C@@H]1CCC3=CC(=O)CC[C@]3(C)[C@H]1CC2 [androstadienone, androsta-4,16-dien-3-one] | decreased negativity | reduction of negative affect | no effect | robust depolarization
124 to 126 | C=C[C@H]1CC[C@H]2[C@@H]3CC[C@H]4CC(=O)C=C[C@]4(C)[C@H]3CC[C@]12C | – | – | – | –
